Measurements reported in patent US9586951B2 (FUJIFILM Corporation, priority 2013, dated 2017).

Tests used:
[1] = molecular target: T1, ATM (Homo sapiens, UniProt Q13315); assay: ATM inhibition test (phosphorylation of Chk2 generated by ionizing radiation, AlphaScreen SureFire); assay type: cell-based; conditions: phosphorylated Chk2 in NCI-H460 cells, ionizing radiation 8Gy, 1 hour after test compound treatment; read-out: ATM inhibitory activity
T1 construct: detecting phosphorylation of Chk2 in a human non-small cell lung cancer cell line NCI-H460 (ATCC company); host or cells: NCI-H460 human non-small cell lung cancer cells
How it was run: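 Phosphorylated Chk2 read by AlphaScreen SureFire in human non-small cell lung cancer NCI-H460 cells, 1 hour after 8Gy ionizing radiation at 37° C. Compound added 1 hour before irradiation. Percent inhibition normalised between irradiated and non-irradiated drug-untreated signals.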

[2] = tested on: human non-small cell lung cancer cell line NCI-H460; assay: Cell proliferation inhibition test by sensitivity-enhancing to ionizing radiation (Cell Titer Glo); assay type: cell-based; conditions: concentration in which SER became 2, NCI-H460 cells, ionizing radiation 2 Gy, cultured 120 hour
How it was run: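 Radiosensitisation measured as SER, a ratio of Cell Titer Glo luminescence in irradiated vs unirradiated plates relative to DMSO; SER2, the concentration yielding SER 2, came from sigmoidal regression. Compound (0.1% DMSO) was given 24 h post-seeding, 2 Gy applied 30 min later, then 120 hour culture at 37° C.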

T1 sequence (Q13315 whole entry): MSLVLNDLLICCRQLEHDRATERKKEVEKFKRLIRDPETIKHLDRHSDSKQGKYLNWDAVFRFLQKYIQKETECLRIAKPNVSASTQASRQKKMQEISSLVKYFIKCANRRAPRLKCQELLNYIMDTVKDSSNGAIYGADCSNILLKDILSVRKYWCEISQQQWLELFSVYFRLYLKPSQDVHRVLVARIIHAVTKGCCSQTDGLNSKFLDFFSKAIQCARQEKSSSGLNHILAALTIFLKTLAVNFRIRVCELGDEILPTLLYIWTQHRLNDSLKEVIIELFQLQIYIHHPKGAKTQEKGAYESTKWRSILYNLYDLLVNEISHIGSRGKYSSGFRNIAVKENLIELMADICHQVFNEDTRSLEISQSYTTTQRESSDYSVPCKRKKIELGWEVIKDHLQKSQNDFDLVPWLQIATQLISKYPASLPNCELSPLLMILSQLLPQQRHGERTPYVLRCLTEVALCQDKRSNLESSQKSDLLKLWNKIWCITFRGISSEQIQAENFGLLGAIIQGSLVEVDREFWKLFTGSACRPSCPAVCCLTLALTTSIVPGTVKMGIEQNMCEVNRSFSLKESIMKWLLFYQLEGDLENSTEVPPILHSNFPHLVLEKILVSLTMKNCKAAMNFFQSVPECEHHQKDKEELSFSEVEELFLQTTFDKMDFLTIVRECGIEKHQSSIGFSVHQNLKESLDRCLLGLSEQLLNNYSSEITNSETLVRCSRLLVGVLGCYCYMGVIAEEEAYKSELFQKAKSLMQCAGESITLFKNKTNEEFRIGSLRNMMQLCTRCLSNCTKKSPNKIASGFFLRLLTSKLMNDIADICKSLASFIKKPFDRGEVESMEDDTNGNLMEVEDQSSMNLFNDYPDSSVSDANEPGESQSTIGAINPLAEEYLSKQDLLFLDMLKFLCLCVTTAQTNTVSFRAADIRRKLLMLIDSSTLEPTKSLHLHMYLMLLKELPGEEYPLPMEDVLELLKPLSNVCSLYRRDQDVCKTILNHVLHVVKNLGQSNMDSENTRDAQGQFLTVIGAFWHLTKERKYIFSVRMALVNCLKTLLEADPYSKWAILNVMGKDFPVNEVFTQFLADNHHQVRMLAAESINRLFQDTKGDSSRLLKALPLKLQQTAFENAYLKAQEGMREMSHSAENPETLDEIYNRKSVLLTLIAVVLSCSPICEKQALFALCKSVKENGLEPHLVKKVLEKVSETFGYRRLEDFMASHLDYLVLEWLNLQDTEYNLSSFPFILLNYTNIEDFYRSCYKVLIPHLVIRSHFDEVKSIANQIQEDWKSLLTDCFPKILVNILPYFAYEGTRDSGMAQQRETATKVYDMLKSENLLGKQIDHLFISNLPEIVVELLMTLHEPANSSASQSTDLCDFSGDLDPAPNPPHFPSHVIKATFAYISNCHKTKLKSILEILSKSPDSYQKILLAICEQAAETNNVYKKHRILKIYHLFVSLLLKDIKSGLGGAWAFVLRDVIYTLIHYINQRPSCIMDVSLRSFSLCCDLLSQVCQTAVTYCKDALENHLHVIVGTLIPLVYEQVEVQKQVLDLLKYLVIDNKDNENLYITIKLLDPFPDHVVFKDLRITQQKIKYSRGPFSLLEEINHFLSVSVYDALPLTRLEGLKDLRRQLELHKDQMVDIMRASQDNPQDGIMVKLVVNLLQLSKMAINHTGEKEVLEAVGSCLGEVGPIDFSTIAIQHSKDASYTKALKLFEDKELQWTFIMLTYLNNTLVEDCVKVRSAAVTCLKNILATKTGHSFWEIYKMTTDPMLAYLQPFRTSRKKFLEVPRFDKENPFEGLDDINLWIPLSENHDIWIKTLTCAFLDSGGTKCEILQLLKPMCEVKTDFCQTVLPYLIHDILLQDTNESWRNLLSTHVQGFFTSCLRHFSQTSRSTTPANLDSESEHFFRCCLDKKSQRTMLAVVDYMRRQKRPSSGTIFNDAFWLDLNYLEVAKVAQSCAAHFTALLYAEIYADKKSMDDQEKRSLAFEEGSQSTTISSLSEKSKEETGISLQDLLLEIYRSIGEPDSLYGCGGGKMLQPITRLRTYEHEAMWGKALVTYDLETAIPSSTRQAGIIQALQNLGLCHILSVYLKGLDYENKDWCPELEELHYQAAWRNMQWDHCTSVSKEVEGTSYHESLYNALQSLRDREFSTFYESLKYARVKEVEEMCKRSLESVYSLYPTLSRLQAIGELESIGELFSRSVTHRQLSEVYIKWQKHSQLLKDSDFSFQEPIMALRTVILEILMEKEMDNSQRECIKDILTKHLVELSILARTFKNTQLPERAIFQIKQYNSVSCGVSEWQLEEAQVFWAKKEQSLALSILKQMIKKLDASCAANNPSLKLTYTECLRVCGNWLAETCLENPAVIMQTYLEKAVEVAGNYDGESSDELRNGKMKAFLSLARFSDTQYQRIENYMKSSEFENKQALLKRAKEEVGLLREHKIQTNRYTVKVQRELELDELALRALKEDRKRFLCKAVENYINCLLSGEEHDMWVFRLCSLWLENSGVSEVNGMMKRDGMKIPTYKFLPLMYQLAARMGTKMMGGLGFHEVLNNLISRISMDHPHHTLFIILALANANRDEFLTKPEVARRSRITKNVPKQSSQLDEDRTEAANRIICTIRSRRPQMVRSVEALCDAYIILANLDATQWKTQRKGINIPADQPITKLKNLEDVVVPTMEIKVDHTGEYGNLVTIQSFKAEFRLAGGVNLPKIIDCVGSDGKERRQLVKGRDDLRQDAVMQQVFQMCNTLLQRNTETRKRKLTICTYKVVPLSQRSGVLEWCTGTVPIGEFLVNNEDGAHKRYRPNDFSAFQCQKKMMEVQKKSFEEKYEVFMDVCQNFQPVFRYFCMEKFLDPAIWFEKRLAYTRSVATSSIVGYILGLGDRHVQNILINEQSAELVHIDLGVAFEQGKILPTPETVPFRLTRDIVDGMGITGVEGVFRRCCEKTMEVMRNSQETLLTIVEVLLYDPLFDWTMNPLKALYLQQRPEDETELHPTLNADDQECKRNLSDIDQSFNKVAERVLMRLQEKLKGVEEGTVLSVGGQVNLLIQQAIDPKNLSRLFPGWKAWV

Row | IC50 [1] [nM] | SMILES | SER2 (concentration at which the radiation sensitivity-enhancement ratio reaches 2) [2] [nM] | SER2 (concentration at which the radiation sensitivity-enhancement ratio reaches 2) ([2]; Homo sapiens, NCI-H460, 120 h) [nM]
1 | < 100 | COc1ccnc(CNc2ccc3c(c2)Cc2cccc(-c4cc(N5CCOCC5)cc(=O)[nH]4)c2O3)n1 [Example 2-13-8, 6-(7-(((4-Methoxypyrimidin-2-yl)methyl)amino)-9H-xanthen-4-yl)-4-morpholino pyridin-2(1H)-one] |  | 500 to 2000
2 | < 100 | Cc1cncc(C(C)Nc2ccc3c(c2)Sc2cccc(-c4cc(N5CCOCC5)cc(=O)[nH]4)c2S3)c1 (stereo not drawn) [Example 1-12-50, 6-(7-((1-(5-Methylpyridin-3-yl)ethyl)amino)thianthren-1-yl)-4-morpholino pyridin-2 (1H)-one] |  | 100 to 500
3 | < 100 | Cc1cccc(CNc2ccc3c(c2)Sc2cccc(-c4cc(N5CCOCC5)cc(=O)[nH]4)c2O3)n1 [Example 4-8-5, 6-(8-(((6-Methylpyridin-2-yl)methyl)amino)phenoxathiin-4-yl)-4-morpholino pyridin-2(1H)-one] |  | 100 to 500
4 | < 100 | Cc1cccc(C(CCN2CCOCC2)Nc2ccc3c(c2)Sc2cccc(-c4cc(N5CCOCC5)cc(=O)[nH]4)c2S3)n1 (stereo not drawn) [Example 1-34-4] |  | < 100
5 | < 100 | Cc1cnc(C(CCN(C)C)Nc2ccc3c(c2)Sc2cccc(-c4cc(N5CCOCC5)cc(=O)[nH]4)c2S3)cn1 (single isomer, unassigned) [Example 1-22-12-1, 6-(7-((3-(dimethylamino)-1-(5-methylpyrazin-2-yl)propyl)amino)thianthren-1-yl)-4-morpholinopyridin-2(1H)-one] |  | 100 to 500
6 | < 100 | Cc1ccc(C(Nc2ccc3c(c2)Sc2cccc(-c4cc(N5CCOCC5)cc(=O)[nH]4)c2S3)C2CC2)nc1 (stereo not drawn) [Example 1-12-123, 6-(7-((Cyclopropyl(5-methylpyridin-2-yl)methyl)amino)thianthren-1-yl)-4-morpholino pyridin-2(1H)-one] |  | 100 to 500
7 | < 100 | O=c1cc(N2CCOCC2)cc(-c2cccc3c2Sc2ccc(NCCN4CCCCC4)cc2S3)[nH]1 [Example 1-10-10] |  | 100 to 500
8 | < 100 | Cc1cccc(C(Nc2ccc3c(c2)Sc2cccc(-c4cc(N5CCOCC5)cc(=O)[nH]4)c2S3)C2CCN(C)C2)n1 (single isomer, unassigned) [Example 1-22-6, 6-(7-(((6-Methylpyridin-2-yl)(1-methylpyrrolidin-3-yl)methyl)amino)thianthren-1-yl)-4-morpholino pyridin-2 (1H)-one] |  | < 100
9 | < 100 | COc1ccnc(CNc2ccc3c(c2)Sc2cccc(-c4cc(N5CCOCC5)cc(=O)[nH]4)c2S3)c1 [Example 1-12-4] |  | 100 to 500
10 | < 100 | COC[C@H](CN1CCOC[C@@H]1C)Nc1ccc2c(c1)Sc1cccc(-c3cc(N4CCOCC4)cc(=O)[nH]3)c1S2 [Example 1-46-5, 6-(7-(((S)-1-Methoxy-3-((S)-3-methylmorpholino)propan-2-yl)amino)thianthren-1-yl)-4-morpholino pyridin-2(1H)-one] |  | 100 to 500
11 | < 100 | COC(=O)C(Nc1ccc2c(c1)Sc1cccc(-c3cc(N4CCOCC4)cc(=O)[nH]3)c1S2)c1cccc(C)n1 (stereo not drawn) [Example 1-12-107, Methyl 2-(6-methylpyridin 2-yl)-2-((6-(4-morpholino-6-oxo-1,6-dihydropyridin-2 yl)thianthren-2-yl)amino) acetate] |  | 100 to 500
12 | < 100 | N#Cc1ccnc(CNc2ccc3c(c2)Cc2cccc(-c4cc(N5CCOCC5)cc(=O)[nH]4)c2O3)c1 [Example 2-14-11, 2-(((5-(4-Morpholino-6-oxo-1,6-dihydropyridin-2-yl)-9H-xanthen-2-yl)amino)methyl) isonicotinonitrile] |  | 100 to 500

More lines, now with the values behind:

Row | SMILES | IC50 [1] [nM] | SER2 (concentration at which the radiation sensitivity-enhancement ratio reaches 2) [2] [nM] | SER2 (concentration at which the radiation sensitivity-enhancement ratio reaches 2) ([2]; Homo sapiens, NCI-H460, 120 h) [nM]
13 | Cc1ccc(C(Nc2ccc3c(c2)Sc2cccc(-c4cc(N5CCOCC5)cc(=O)[nH]4)c2S3)C2CCN(C)CC2)nc1 (single isomer, unassigned) [Example 1-51-2] | < 100 | 100 to 500 | 
14 | Cc1ccc(CNc2ccc3c(c2)Cc2cccc(-c4cc(N5CCOCC5)cc(=O)[nH]4)c2O3)nc1 [Example 2-2-41, 6-(7-(((5-Methylpyridin-2-yl)methyl)amino)-9H-xanthen-4-yl)-4-morpholino pyridin-2(1H)-one] | 100 to 500 |  | 100 to 500
15 | CC(CN1CCCCC1)Nc1ccc2c(c1)Sc1cccc(-c3cc(N4CCOCC4)cc(=O)[nH]3)c1S2 (stereo not drawn) [Example 1-13-4] | < 100 |  | 100 to 500
16 | COc1ccnc(CNc2ccc3c(c2)Cc2ccnc(-c4cc(N5CCOCC5)cc(=O)[nH]4)c2O3)c1 [Example 2-41-4, 6-(7-(((4-Methoxypyridin-2-yl)methyl)amino)-5H-chromeno[2,3-c]pyridin-1-yl)-4-morpholino pyridin-2 (1H)-one] | < 100 |  | 100 to 500
17 | Cc1ccnc(CNc2ccc3c(c2)Sc2cccc(-c4cc(N5CCOCC5)cc(=O)[nH]4)c2S3)c1 [Example 1-12-5, 6-(7-(((4-Methylpyridin-2-yl)methyl)amino)thianthren-1-yl)-4-morpholino pyridin-2 (1H)-one] | < 100 |  | 100 to 500
18 | CC(Nc1ccc2c(c1)Sc1cccc(-c3cc(N4CCOCC4)cc(=O)[nH]3)c1S2)c1cc(CF)ncn1 (stereo not drawn) [Example 1-12-91, 6-(7-((1-(6-(Fluoromethyl)pyrimidin-4-yl)ethyl)amino)thianthren-1-yl)-4-morpholino pyridin-2(1H)-one] | < 100 |  | 100 to 500
19 | CCOc1ccnc(CNc2ccc3c(c2)Cc2cccc(-c4cc(N5CCOCC5)cc(=O)[nH]4)c2O3)c1 [Example 2-13-11, 6-(7-(((4-Ethoxypyridin-2-yl)methyl)amino)-9H-xanthen-4-yl)-4-morpholino pyridin-2(1H)-one] | < 100 |  | 100 to 500
20 | COCCOCC(Nc1ccc2c(c1)Sc1cccc(-c3cc(N4CCOCC4)cc(=O)[nH]3)c1S2)c1ncc(C)cn1 (stereo not drawn) [Example 1-12-98, 6-(7-((2-(2-Methoxyethoxy)-1-(5-methylpyrimidin-2-yl)ethyl)amino)thianthren-1-yl)-4-morpholino pyridin-2(1H)-one] | < 100 |  | 100 to 500
21 | Cc1cccc(C(C)Nc2ccc3c(c2)Sc2cccc(-c4cc(N5CCOCC5)cc(=O)[nH]4)c2O3)n1 (stereo not drawn) [Example 4-4-30, 6-(8-((1-(6-Methylpyridin-2-yl)ethyl)amino)phenoxathiin-4-yl)-4-morpholino pyridin-2(1H)-one] | < 100 |  | 100 to 500
22 | CN(C)c1cnc(CNc2ccc3c(c2)Cc2cccc(-c4cc(N5CCOCC5)cc(=O)[nH]4)c2O3)cn1 [Example 2-2-37] | < 100 |  | 500 to 2000
23 | Cc1ccc(C(Nc2ccc3c(c2)Sc2cccc(-c4cc(N5CCOCC5)cc(=O)[nH]4)c2S3)C2CN(C)CCO2)nc1 (single isomer, unassigned) [Example 1-52-1, 6-(7-(((4-methylmorpholin-2-yl)(5-methylpyridin-2-yl)methyl)amino)thianthren-1-yl)-4-morpholinopyridin-2(1H)-one] | < 100 |  | < 100
24 | CNc1ncc(CNc2ccc3c(c2)Sc2cccc(-c4cc(N5CCOCC5)cc(=O)[nH]4)c2O3)cn1 [Example 4-4-13, 6-(8-(((2-(Methylamino)pyrimidin-5-yl)methyl)amino)phenoxathiin-4-yl)-4-morpholino pyridin-2(1H)-one] | < 100 |  | 100 to 500
25 | Cc1ccc(C(Nc2ccc3c(c2)Sc2cccc(-c4cc(N5CCOCC5)cc(=O)[nH]4)c2S3)C2CCN(C)CC2)nc1 (single isomer, unassigned) [Example 1-51-1, 6-(7-(((1-methylpiperidin-4-yl)(5-methylpyridin-2-yl)methyl)amino)thianthren-1-yl)-4-morpholinopyridin-2(1H)-one] | < 100 | < 100 | 
26 | CN1CCCC(Nc2ccc3c(c2)Sc2cccc(-c4cc(N5CCOCC5)cc(=O)[nH]4)c2S3)C1 (stereo not drawn) [Example 1-31-2, 6-(7-((1-Methylpiperidin-3-yl)amino)thianthren-1-yl)-4-morpholinopyridin-2(1H)-one] | < 100 |  | 100 to 500
27 | Cc1cccc(C(CO)Nc2ccc3c(c2)Sc2cccc(-c4cc(N5CCOCC5)cc(=O)[nH]4)c2S3)n1 (single isomer, unassigned) [Example 1-12-140-2, 6-(7-((2-hydroxy-1-(6-methylpyridin-2-yl)ethyl)amino)thianthren-1-yl)-4-morpholinopyridin-2(1H)-one] | < 100 |  | < 100
